Measured values taken from EP2179734B1, “Benzoxazine and dihydroquinazoline derivatives for use in the treatment of alcohol withdrawal syndrome” (Biocodex, priority 2008, dated 2010).

Key:
souris sevrée [1] = assay: Handling-induced convulsion score during alcohol withdrawal (Watson and Little 1995); format: in vivo; settings: NMRI mice, 4 to 6 h after removal
Method: (§1) Des souris de souche NMRI (élevage Janvier), âgées de 5 à 6 semaines et de poids compris entre 25 et 30 g sont utilisées après 10 jours d'habituation aux conditions du laboratoire. Les conditions d'hébergement sont les suivantes : t° ambiante = 22 ± 2 °C; hygrométrie relative = 50 ± 20 %; cycle lumière/obscurité : 12 h/12 h (lumière de 7h00 à 19h00); nourriture A04 (SAFE, France) et boisson (eau du robinet) à volonté; dix animaux groupés par cage de polypropylène (435x435x194 mm).
(§2) Dans un premier temps, les animaux ont été familiarisés avec la nourriture liquide apportée sous un volume quotidien de 40 ml durant 7 à 10 jours. Celle-ci est constituée de lait chocolaté (Candia, France) auquel sont ajoutés 5 g/l d'un mélange de sels minéraux (ICN, France) et 3 g/l d'un mélange de vitamines (ICN, France).
(§3) Dans un deuxième temps, les animaux alcoolisés ont reçu la nourriture liquide contenant 3 % (p/v) d'éthanol (95°) durant 8 jours puis 4 % (p/v) d'éthanol (95°) durant 7 jours, tandis que les animaux témoins (non alcoolisés) ont eu accès à une nourriture avec l'équivalent calorique de dextrose (D-glucose, VWR, France).
(§4) Aucune nourriture solide, ni eau de boisson n'ont été proposées aux animaux durant cette période d'alcoolisation. Au terme des 15 jours d'alcoolisation (J15), le biberon avec l'alcool a été remplacé par un biberon de nourriture identique à celui des animaux témoins.
Cette mesure est effectuée selon le protocole décrit par Watson and Little (1995) J Pharmacol Exp Ther 272: 876-884. Brièvement, l'animal est soulevé par la queue et maintenu durant 30 secondes à 30 cm d'une lampe pourvue d'une ampoule de 60W puis subit une légère rotation (360°). Le comportement de chaque animal est évalué selon une échelle de cotation de 0 à 5, selon des critères figurant dans le Tableau 1 : Tableau 1 : Différents niveaux de cotation du comportement chez la souris selon Watson et Little (1995)
La mesure est réalisée avant l'expérience (conditions basales), 24 heures avant le retrait de l'éthanol puis le jour du retrait toutes les heures de 1 à 7 heures après le retrait du biberon de nourriture (7h00 - 8h00 le matin).
L'étifoxine (6.25 - 100 mg/kg) et le diazépam (1 et 4 mg/kg) sont administrés par voie intrapéritonéale (ip) 3h30 après le retrait du biberon. Une étude préliminaire a montré que les signes de sevrage étaient présents à ce temps (score ≥ 2). Les animaux contrôles reçoivent un volume équivalent de liquide véhicule.
Un score (de 0 à 5) est attribué pour chaque animal à chaque temps (de 1 à 7 h).
L'étifoxine (lots 219 et 350; Biocodex - France) est mis en suspension dans une solution saline (NaCl-0.9 %; p/v) de tween 80 à 1% (v/v) tandis que le diazépam (Valium®) est solubilisé dans une solution saline. Le volume d'administration par voie ip est de 0.1 ml/10 g. […]

souris sevrée [2] = assay: Anxiety level during alcohol withdrawal: two-compartment (light/dark) box test (Crawley and Goodwin 1980, modified); format: in vivo; settings: 8 h after ethanol removal, 5 min test, withdrawn NMRI mice
Method: as §1, §2, §3, §4
Le protocole décrit par Crawley and Goodwin (1980) Pharmacol Biochem Behav 1980; 13: 167-170 et légèrement modifié a été utilisé. Cette épreuve, reposant sur les tendances agoraphobiques et photophobiques des rongeurs, est classiquement utilisée pour mesurer leur niveau de peur ou d'anxiété.
Le dispositif est constitué d'une boîte en plexiglas à 2 compartiments (OSYS, Orga System; France) : l'un (18 x 27 x 30 cm) sombre et pourvu d'un couvercle, est éclairé à l'aide d'une lampe rouge (60W; 4 lux) tandis que le plus grand (27 x 27 x 30 cm), peint en blanc, est éclairé à l'aide d'une lampe de 60 W (400 lux). Une entrée (7.5 x 7.5 cm) située au centre de la cloison qui sépare les 2 compartiments, relie les 2 compartiments. Ceux-ci, équipés de cellules photoélectriques infra-rouges (4 dans le compartiment clair et 3 dans le compartiment sombre) reliées à un compteur digital, permettent la détection et la mesure des déplacements de l'animal. Celui-ci est déposé au centre du compartiment sombre face à l'ouverture. La latence d'entrée (en sec.) dans le compartiment clair, le nombre de déplacements dans le compartiment clair et le nombre de transition entre les 2 compartiments sombre et clair sont relevés au terme d'une épreuve de 5 min. La boîte est nettoyée avec de l'eau alcoolisée (10 %; v/v) pour éliminer toute trace odorante entre chaque passage. L'épreuve est réalisée 8 h après le retrait de la nourriture alcoolisée. Ce délai correspond au temps optimal pour la mesure du niveau d'anxiété chez l'animal soumis au sevrage alcoolique (Watson et Little (1994) Psychopharmacology (Berl) 114: 329-336).
L'étifoxine (6.25 - 50 mg/kg) ou le diazépam (1 mg/kg) est administré par voie ip 30 min avant l'épreuve. Les animaux contrôles reçoivent un volume équivalent de liquide véhicule.
L'étifoxine (lots 219 et 350; Biocodex - France) est mis en suspension dans une solution saline (NaCl-0.9 %; p/v) de tween 80 à 1% (v/v) tandis que le diazépam (Valium®) est solubilisé dans une solution saline. Le volume d'administration par voie ip est de 0.1 ml/10 g.
Les résultats sont exprimés par la valeur moyenne ± erreur standard à la moyenne (esm). Concernant la mesure de l'intensité des convulsions induites par la manipulation, l'analyse de variance (ANOVA) à 2 facteurs (temps x traitement) avec mesures répétées sur le facteur temps suivie de manière post-hoc par le test de Student Newman-Keuls, a été utilisée pour localiser les différences entre les groupes expérimentaux. […]

Row | SMILES | score de convulsions (souris sevrée [1]; mainly at 4 mg/kg ip 3h30 after ethanol removal) | latence d'entrée dans le compartiment clair (souris sevrée [2]; 1 mg/kg ip 30 min before test) | nombre de déplacements dans le compartiment clair (souris sevrée [2]; 1 mg/kg ip 30 min before test) | nombre de transitions entre les 2 compartiments (souris sevrée [2]; 1 mg/kg ip 30 min before test) | score de convulsions (souris sevrée [1]; 12.5 mg/kg ip 3h30 after ethanol removal, vs alcoholised controls, p<0.05) | score de convulsions (souris sevrée [1]; 25 mg/kg ip 3h30 after ethanol removal, vs alcoholised controls, p<0.05) | score de convulsions (souris sevrée [1]; 100 mg/kg ip 3h30 after ethanol removal, vs alcoholised controls, p<0.05) | latence d'entrée dans le compartiment clair (souris sevrée [2]; 50 mg/kg ip 30 min before test) | nombre de déplacements dans le compartiment clair (souris sevrée [2]; 50 mg/kg ip 30 min before test) | nombre de transitions entre les 2 compartiments (souris sevrée [2]; 50 mg/kg ip 30 min before test)
1 | CN1C(=O)CN=C(c2ccccc2)c2cc(Cl)ccc21 [diazépam] | produit le même effet | atténue également de manière significative les effets du retrait de l'éthanol | atténue également de manière significative les effets du retrait de l'éthanol | atténue également de manière significative les effets du retrait de l'éthanol |  |  |  |  |  | 
2 | CCNC1=Nc2ccc(Cl)cc2C(C)(c2ccccc2)O1 (stereo not shown) [étifoxine, chlorhydratede 6-chloro-2-éthylamino-4-méthyl-4-phényl-4H-[3,1]benzoxazine] |  |  |  |  | réduit significativement le score de convulsions | réduit significativement le score de convulsions | réduit significativement le score de convulsions | s'oppose aux effets du sevrage à l'éthanol sur ces 3 paramètres avec un effet statistiquement significatif | s'oppose aux effets du sevrage à l'éthanol sur ces 3 paramètres avec un effet statistiquement significatif | s'oppose aux effets du sevrage à l'éthanol sur ces 3 paramètres avec un effet statistiquement significatif
